Source: US12123009B2, “Methods and compositions for PPO herbicide tolerance in plants” (Monsanto Technology LLC, priority 2015, dated 2024)

Tests used:
[1] = target: H_N110 (SEQ ID NO: 10), microbial HemG protoporphyrinogen oxidase; test: PPO enzyme assay (bacterial extract); conditions: read-out: S-3100 IC50; 3 μM protogen; pH 7.4, 37° C.
[2] = test system: transgenic maize expressing HemG PPO enzymes; test: Transgenic Maize Herbicide Tolerance II (R0 plants sprayed); format: in vivo; conditions: 40 grams/ha; for Average Injury: V5, 7 days
Excerpt: (§1) H_N60 (SEQ ID NO:3). […] These five constructs had the same promoter plus leader plus intron combination, with two different targeting peptide (TP) sequences, and the same 3′UTR sequence. Leaf samples were taken from the R0 plants and analyzed by PCR to determine the transgene copy number. Single copy plants for up to 12 unique events per construct were transplanted to pots, selfed and outcrossed to generate R1 and F1 seed, respectively, for future testing. Multi-copy plants and extra single copy plants were sprayed with 40 grams/ha 5-3100 at approximately the V5 growth stage and injury ratings were taken 7 days after treatment. The average percent (%) injury for all plants expressing each PPO enzyme and the number of plants that were deemed highly tolerant (less than 10% injury) was noted, where each plant is a unique single or multi-copy transformant.

[3] = test system: soybean, non-transgenic or expressing H_N10 (SEQ ID NO: 4); test: Green house S-3100 efficacy screen of R1 soybean; format: in vivo
Protocol: Single-copy transgenic R1 soybean plants in the greenhouse were sprayed with one of three herbicide application rates: Treatment 1 was 5 grams ai/ha S-3100 applied at V4 followed by (fb) R1; Treatment 2 was 10 grams ai/ha S-3100 applied at V4 fb R1; Treatment 3 was 30 grams ai/ha S-3100 applied at V4 fb R1. Crop Injury Percent at V2 (CIPV2) ratings were assessed ten days after treatment. Non-transgenic plants had average injury ratings of 89% to 100% and were not available for rating at the R1 growth stage.

[4] = test system: maize (LH244), non-transgenic or expressing H_N10 (SEQ ID NO:4); test: Transgenic Maize Herbicide Tolerance I (R0 plants sprayed); format: in vivo; conditions: 7 days
Excerpt: The plant transformation constructs were annotated construct 1, 6, 11, and 16. For maize in planta testing, immature maize (LH244) embryos were transformed with using Agrobacterium tumefaciens and standard methods known in the art.
Leaf samples were collected from R0 plants and screened by PCR to determine the number of copies of the transgene inserted into the plant genome. The plants containing a single copy (single copy) were selfed and outcrossed to generate R1 and F1 seed for future testing, respectively. Plants containing multiple copies (multi-copy) were sprayed as follows: (1) 5 g/ha S-3100 at approximately the V5 growth stage followed by 10 g/ha S-3100 at approximately the V7 growth stage, for a total application of 15 g/ha S-3100 or (2) 10 g/ha S-3100 at approximately the V5 growth stage. The average percentage of injury, on a scale of 0-100 with zero being no injury and 100 being complete crop death, was assessed 7 days after the final treatment for each batch.

[5] = target: H_N60 (SEQ ID NO: 3), microbial HemG protoporphyrinogen oxidase; test: PPO enzyme assay (bacterial extract); conditions: read-out: S-3100 IC50; 3 μM protogen; pH 7.4, 37° C.
[6] = test system: transgenic F1 maize expressing H_N10 (SEQ ID NO:4); test: F1 maize greenhouse herbicide tolerance; format: in vivo; conditions: 40 grams/ha, V3, seven days
Protocol: The plants were treated with 40 grams/ha S-3100 at the V3 growth stage and injury ratings were taken seven days after treatment.

[7] = target: Maize (Zea mays) protoporphyrinogen oxidase (PPO), wild type; test: PPO enzyme assay (plastid extract); format: biochemical; conditions: 3 μM protogen; pH 7.4, 30° C.; read-out: S-3100 IC50
[8] = target: H_N70 (SEQ ID NO: 8), microbial HemG protoporphyrinogen oxidase (Pantoea phytostimulans, UniProt A0ACH3N612); test: PPO enzyme assay (bacterial extract); conditions: read-out: S-3100 IC50; 3 μM protogen; pH 7.4, 37° C.
transgenic maize plants = test: R0 transgenic maize 40 g/ha S-3100 spray test; format: in vivo
Excerpt: as §1

[9] = 40 grams/ha S-3100 at V5, 7 days after treatment, R0 plants

Sequence of H_N70 (SEQ ID NO: 8), microbial HemG protoporphyrinogen oxidase (A0ACH3N612 entry or part of it): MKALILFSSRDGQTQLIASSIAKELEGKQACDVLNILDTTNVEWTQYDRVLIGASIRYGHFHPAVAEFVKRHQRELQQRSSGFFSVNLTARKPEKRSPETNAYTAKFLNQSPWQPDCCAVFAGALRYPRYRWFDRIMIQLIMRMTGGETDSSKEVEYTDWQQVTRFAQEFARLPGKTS

CCOC(=O)COc1ncccc1Oc1cc(-n2c(=O)cc(C(F)(F)F)n(C)c2=O)c(F)cc1Cl [S-3100, ethyl [3-2-chloro-4-fluoro-5-(1-methyl-6-trifluoromethyl-2,4-dioxo-1,2,3,4-tetrahydropyrimidin-3-yl)phenoxy]-2-pyridyloxylacetate]
IC50 [1]: > 100 µM
Average Injury ([2]; H_N10 (SEQ ID NO 4), construct 6): 39.5%
Highly Tolerant (less than 10% injury) ([2]; H_N10 (SEQ ID NO 4), construct 6, of 139 plants): 31 plants
Average Injury ([2]; H_N40 (SEQ ID NO 6), construct 23): 47.0%
Highly Tolerant (less than 10% injury) ([2]; H_N40 (SEQ ID NO 6), construct 23, of 98 plants): 53 plants
Average Injury ([2]; H_N60 (SEQ ID NO 3), construct 20): 55.8%
Highly Tolerant (less than 10% injury) ([2]; H_N60 (SEQ ID NO 3), construct 20, of 86 plants): 19 plants
Average Injury ([2]; H_N90 (SEQ ID NO 1), construct 21): 31.4%
Highly Tolerant (less than 10% injury) ([2]; H_N90 (SEQ ID NO 1), construct 21, of 99 plants): 44 plants
Average Injury ([2]; H_N110 (SEQ ID NO 10), construct 22): 43.0%
Highly Tolerant (less than 10% injury) ([2]; H_N110 (SEQ ID NO 10), construct 22, of 94 plants): 0 plants
% Injury R1 stage ([3]; H_N10, construct 1, 5 g/ha): 3%
% Injury V4 stage ([3]; H_N10, construct 1, 5 g/ha): 4.2%
% Injury R1 stage ([3]; H_N10, construct 1, 10 g/ha): 6.5%
% Injury V4 stage ([3]; H_N10, construct 1, 10 g/ha): 7.8%
% Injury R1 stage ([3]; H_N10, construct 1, 30 g/ha): 15.7%
% Injury V4 stage ([3]; H_N10, construct 1, 30 g/ha): 9.4%
% Injury V4 stage ([3]; Nontransgenic, 5 g/ha): 89%
% Injury V4 stage ([3]; Nontransgenic, 10 g/ha): 98%
% Injury V4 stage ([3]; Nontransgenic, 30 g/ha): 100%
Average Injury ([4]; H_N10, construct 6, Treatment 1: 5 g/ha V5 then 10 g/ha V7 (15 g/ha total)): 28.9%
Average Injury ([4]; H_N10, construct 16, Treatment 2: 10 g/ha V5): 24.2%
Average Injury ([4]; nontransgenic, Treatment 1: 5 g/ha V5 then 10 g/ha V7 (15 g/ha total)): 43.3%
Average Injury ([4]; nontransgenic, Treatment 2: 10 g/ha V5): 26.7%
IC50 [5]: > 100 µM
events producing highly tolerant plants (10% or less injury) ([6]; H_N10, construct 6, out of 18 events): 13 events
events producing highly tolerant plants (10% or less injury) ([6]; H_N10, construct 16): no events
IC50 [7]: 0.003 µM
IC50 [8]: > 100 µM

B1: H_N90: microbial HemG protoporphyrinogen oxidase, SEQ ID NO:1 (SEQ ID NO:11 lacking start methionine; variants 18, 19) (protein, listed as Enterobacter cloacae)
chain: MKALVLYSTRDGQTHAIASYIASCMKEKAECDVIDLTHGEHVNLTQYDQVLIGASIRYGHFNAVLDKFIKRNVDQLNNMPSAFFCVNLTARKPEKRTPQTNPYVRKFLLATPWQPALCGVFAGALRYPRYRWIDKVMIQLIMRMTGGETDTSKEVEYTDWEQVKKFAEDFAKLSYKKAL
Average Injury (transgenic maize plants; [9]): 31.4%
Highly Tolerant (number of plants with less than 10% injury) (transgenic maize plants; [9]): 44
injury rates when expressed in transgenic plants (crop tolerance to a PPO herbicide) (transgenic maize plants; R0 transgenic maize data): reduced injury rates
